Results taken from patent publication US7998963B2, “Arylpiperazine derivatives and uses thereof” (Roche Palo Alto LLC, priority 2008, dated 2011).

Tests used:
[1] = biological target: T1, human norepinephrine transporter (hNET) (Homo sapiens, UniProt P23975); test: hNET scintillation proximity assay (SPA), competition with [3H]-Nisoxetine; assay type: binding; details: membranes of HEK-293 cells expressing recombinant hNET, Ki by Cheng-Prusoff
T1 construct: expressed in transfected cells; host or cells: HEK-293 (Clone: HEK-hNET #2)
Procedure: Screening for Compounds Active at Human Norepinephrine Transporter (HNET) Using a Scintillation Proximity Assay (SPA)
This assay was used to determine the affinity of ligands for the hNET transporter by competition with [^3H]-Nisoxetine. As in the hSERT assay of the above example, receptor-containing membranes were pre-coupled to the SPA beads and the binding of the appropriate radioligand to the transporter was measured. The light emission was proportional to the amount of bound radioligand, with unbound radioligand producing no signal. […]
Cell membranes were prepared using a membrane preparation buffer of 50 mM TRIS (pH 7.4). […] After a second centrifugation, the pellet was re-homogenized and brought to a final volume determined during the assay. […]
^3[H] […] The mixtures were allowed to stand at room temperature for one hour, and were then counted on a Packard TopCount LCS, a generic SPA counting protocol settings (Energy Range: Low, Efficiency Mode: Normal, Region A: 1.50-35.00, Region B: 1.50-256.00, Count Time (min.): 0.40, Background Subtract: none, Half-Life Correction: no, Quench Indicator: tSIS, Platemap blank subtraction: No, Cross talk reduction: Off).
(§1) The % inhibition was calculated for each compound tested [(Compound CPM at maximum concentration-Non-Specific CPM)/Total CPM*100]. […]

[2] = biological target: T2, human dopamine transporter (hDAT) (Homo sapiens, UniProt Q01959); test: hDAT scintillation proximity assay (SPA), competition with [3H]-Vanoxerine; assay type: binding; details: HEK-293 cells expressing recombinant hDAT, Ki by Cheng-Prusoff
T2 construct: expressed in transfected cells; host or cells: HEK-293
Procedure: Screening for Compounds Active at Human Dopamine Transporter Using a Scintillation Proximity Assay (SPA)
This assay was used to determine the affinity of ligands for the dopamine transporter by competition with [^3H]-Vanoxerine.
HEK-293 cells (Tatsumi et al., Eur. J. Pharmacol. 1997, 30, 249-258) stably expressing recombinant hDAT were maintained with media (DMEM hi glucose with 10% FBS, 300 μg/ml G418 and 2 mM L-Glutamine) and incubated at 37° C. with 5% CO2. Cells were plated four hours prior to experiment by placing approximately 30,000 cells per well (in PBS) on white, opaque Cell-Tak coated 96 well plates. Extra buffer was apriated from the cell plates using an ELx405 plate washer.
^3[H] vanoxerine (GBR 12909) radioligand, specific activity approximately 59 Ci/mmol, stock concentration, 400 nM, and 50 mM Tris-HCl, 300 mM NaCl, (pH 7.4) buffers were used for Scintillation Proximity Assay IC50/Ki determination. […]
as §1
[formula] where max=total binding, min=non specific binding, x=concentration (M) of the tested compound and n=Hill slope. The inhibition dissociation constant (Ki) of each compound was determined according to the method of Cheng-Prusoff and then converted into negative logarithm (pKi) of the Ki.

T1 sequence (P23975 whole entry): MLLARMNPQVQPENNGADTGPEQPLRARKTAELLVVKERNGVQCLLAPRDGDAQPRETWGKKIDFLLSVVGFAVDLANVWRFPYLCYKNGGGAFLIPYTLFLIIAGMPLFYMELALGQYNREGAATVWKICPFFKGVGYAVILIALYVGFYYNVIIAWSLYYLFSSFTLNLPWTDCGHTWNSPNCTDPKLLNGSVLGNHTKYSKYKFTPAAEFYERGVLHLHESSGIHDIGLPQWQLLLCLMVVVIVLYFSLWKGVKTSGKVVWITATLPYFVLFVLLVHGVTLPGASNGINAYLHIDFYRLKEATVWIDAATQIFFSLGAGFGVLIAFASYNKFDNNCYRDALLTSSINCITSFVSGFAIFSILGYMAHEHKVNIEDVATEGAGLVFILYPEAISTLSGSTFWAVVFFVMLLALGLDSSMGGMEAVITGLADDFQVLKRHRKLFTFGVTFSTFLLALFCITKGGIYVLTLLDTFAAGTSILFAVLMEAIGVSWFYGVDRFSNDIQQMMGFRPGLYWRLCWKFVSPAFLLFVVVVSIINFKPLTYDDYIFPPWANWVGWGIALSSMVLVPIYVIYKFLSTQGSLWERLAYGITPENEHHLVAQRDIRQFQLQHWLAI
T2 sequence (Q01959 whole entry): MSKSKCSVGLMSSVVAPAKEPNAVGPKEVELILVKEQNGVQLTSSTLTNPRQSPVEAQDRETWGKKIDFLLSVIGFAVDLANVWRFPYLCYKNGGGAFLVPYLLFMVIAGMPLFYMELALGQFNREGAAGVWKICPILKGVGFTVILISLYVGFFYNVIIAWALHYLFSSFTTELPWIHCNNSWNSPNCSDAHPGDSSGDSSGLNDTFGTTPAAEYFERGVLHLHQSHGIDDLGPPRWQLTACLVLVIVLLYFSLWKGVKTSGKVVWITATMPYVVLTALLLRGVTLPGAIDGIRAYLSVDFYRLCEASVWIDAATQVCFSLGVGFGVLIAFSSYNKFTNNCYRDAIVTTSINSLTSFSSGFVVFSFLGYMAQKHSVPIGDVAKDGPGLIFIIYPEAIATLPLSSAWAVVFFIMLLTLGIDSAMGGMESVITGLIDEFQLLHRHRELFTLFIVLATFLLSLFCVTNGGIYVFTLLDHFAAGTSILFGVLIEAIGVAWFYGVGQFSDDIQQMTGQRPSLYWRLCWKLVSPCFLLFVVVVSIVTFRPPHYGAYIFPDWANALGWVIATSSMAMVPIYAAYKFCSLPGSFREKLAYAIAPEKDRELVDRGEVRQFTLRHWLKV

Compound | Ki [1] [nM] | Ki [2] [nM]
c1ccc(OCC2CNCCN2c2ccc3[nH]ncc3c2)cc1 (centres unmarked) [5-(2-Phenoxymethyl-piperazin-1-yl)-1H-indazole] | ~6.31 | –
c1cc2[nH]ncc2cc1N1CCNC[C@H]1CCC1CC1 [5-[(R)-2-(2-Cyclopropyl-ethyl)-piperazin-1-yl]-1H-indazole] | – | ~12.6
